According to ChEMBL document CHEMBL2203016, “Purpuroines A-J, halogenated alkaloids from the sponge Iotrochota purpurea with antibiotic activity and regulation of tyrosine kinases” (Bioorg Med Chem, 2012):
≈ marks a conversion by molar mass, not a printed value. Calls of active or inactive are those of the source. The rule behind the calls is not given here.

Experiments:
[1] = target: Serine/threonine-protein kinase PLK1 (Homo sapiens, UniProt P53350); assay: Inhibition of PLK1
[2] = target: Cyclin-dependent kinase 2 (Homo sapiens, UniProt P24941); assay: Inhibition of CDK2
[3] = target: Tyrosine-protein kinase Lck (Homo sapiens, UniProt P06239); assay: Inhibition of LCK
Sequence of Tyrosine-protein kinase Lck (P06239 whole entry): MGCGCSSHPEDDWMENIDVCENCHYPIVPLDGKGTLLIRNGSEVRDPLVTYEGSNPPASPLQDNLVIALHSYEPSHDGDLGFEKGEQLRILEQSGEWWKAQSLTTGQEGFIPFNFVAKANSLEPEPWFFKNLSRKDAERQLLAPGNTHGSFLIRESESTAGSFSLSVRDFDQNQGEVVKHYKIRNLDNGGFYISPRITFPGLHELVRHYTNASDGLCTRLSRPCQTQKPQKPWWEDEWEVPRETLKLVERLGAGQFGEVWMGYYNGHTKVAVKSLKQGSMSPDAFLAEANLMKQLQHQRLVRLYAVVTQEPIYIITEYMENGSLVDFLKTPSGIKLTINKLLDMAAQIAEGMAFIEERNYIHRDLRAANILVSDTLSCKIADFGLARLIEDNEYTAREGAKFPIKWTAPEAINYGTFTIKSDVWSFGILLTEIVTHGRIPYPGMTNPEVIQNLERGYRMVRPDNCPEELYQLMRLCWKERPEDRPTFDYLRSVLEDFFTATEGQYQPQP

[4] = tested on: Aspergillus flavus; assay: Antimicrobial activity against Aspergillus flavus by microplate reader analysis; format: functional, organism-based
[5] = tested on: Fusarium oxysporum; assay: Antimicrobial activity against Fusarium oxysporum by microplate reader analysis; format: functional, organism-based
[6] = tested on: Pseudomonas aeruginosa; assay: Antimicrobial activity against Pseudomonas aeruginosa by microplate reader analysis; format: functional, organism-based
[7] = tested on: Saccharomyces cerevisiae; assay: Antimicrobial activity against Saccharomyces cerevisiae by microplate reader analysis; format: functional, organism-based
[8] = tested on: Staphylococcus aureus; assay: Antimicrobial activity against Staphylococcus aureus by microplate reader analysis; format: functional, organism-based
[9] = tested on: Escherichia coli; assay: Antimicrobial activity against Escherichia coli by microplate reader analysis; format: functional, organism-based
[10] = tested on: Aspergillus fumigatus; assay: Antimicrobial activity against Aspergillus fumigatus at 20 ug/ml by microplate reader analysis; format: functional, organism-based
[11] = tested on: Candida albicans; assay: Antimicrobial activity against Candida albicans at 20 ug/ml by microplate reader analysis; format: functional, organism-based
[12] = tested on: Streptococcus pneumoniae; assay: Antimicrobial activity against Streptococcus pneumoniae at 20 ug/ml by microplate reader analysis; format: functional, organism-based
[13] = tested on: Aspergillus fumigatus; assay: Antimicrobial activity against Aspergillus fumigatus by microplate reader analysis; format: functional, organism-based
[14] = tested on: Candida albicans; assay: Antimicrobial activity against Candida albicans by microplate reader analysis; format: functional, organism-based
[15] = tested on: Streptococcus pneumoniae; assay: Antimicrobial activity against Streptococcus pneumoniae by microplate reader analysis; format: functional, organism-based
[16] = Aspergillus fumigatus, read-out: IC50
[17] = Streptococcus pneumoniae, read-out: IC50
[18] = Candida albicans, read-out: IC50

Sequence of Serine/threonine-protein kinase PLK1 (P53350 whole entry): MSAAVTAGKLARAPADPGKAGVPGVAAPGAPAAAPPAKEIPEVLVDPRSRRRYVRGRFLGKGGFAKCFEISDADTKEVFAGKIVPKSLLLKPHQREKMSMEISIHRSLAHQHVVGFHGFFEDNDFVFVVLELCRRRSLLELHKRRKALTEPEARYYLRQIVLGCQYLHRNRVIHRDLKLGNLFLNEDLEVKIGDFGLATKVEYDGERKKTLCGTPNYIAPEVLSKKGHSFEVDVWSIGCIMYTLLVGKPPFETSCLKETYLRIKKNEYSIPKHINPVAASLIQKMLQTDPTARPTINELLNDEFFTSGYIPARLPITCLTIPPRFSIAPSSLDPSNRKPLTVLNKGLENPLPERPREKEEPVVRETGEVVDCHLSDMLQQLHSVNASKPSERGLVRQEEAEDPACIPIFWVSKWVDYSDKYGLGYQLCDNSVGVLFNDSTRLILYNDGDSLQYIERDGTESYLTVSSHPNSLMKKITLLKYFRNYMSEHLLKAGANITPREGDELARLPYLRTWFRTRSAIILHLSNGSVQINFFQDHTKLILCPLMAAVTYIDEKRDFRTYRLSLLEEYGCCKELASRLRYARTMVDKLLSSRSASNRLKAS

Row | Structure (SMILES) | IC50 [1] | IC50 [2] | IC50 [3] | IC50 [13, 16] | IC50 [14] | IC50 [15] | IC50 [15, 17] | IC50 [14, 18] | IC50 [13] | Activity [4] | Activity [5] | Activity [6] | Activity [7] | Activity [8] | Activity [9] | Activity [10] | Activity [11] | Activity [12]
1 | COC(=O)[C@@H](Cc1c[nH]c2cc(Br)ccc12)[N+](C)(C)C (racemic) |  |  |  |  |  |  |  |  |  | Active | Active | Active | Active | Active | Active | inactive | inactive | inactive
2 | CC1(C)S[C@@H]2[C@H](NC(=O)[C@H](N)c3ccccc3)C(=O)N2[C@H]1C(=O)O [AMPICILLIN] |  |  |  |  |  |  | 0.38 µg/mL (≈ 1.09 µM) |  |  |  |  |  |  |  |  |  |  | 
3 | C[N+](C)(C)[C@H](CCOc1ccc(Br)cc1Br)C(=O)[O-] [PURPUROINE B] | > 127 µM | > 127 µM | 32.3 µM |  |  |  |  |  |  | Active | Active | Active | Active | Active | Active | inactive | inactive | inactive
4 | C[N+](C)(C)[C@H](CCOc1c(Br)cc(Br)cc1Br)C(=O)[O-] [PURPUROINE A] | > 105 µM | > 105 µM | 4.96 µM | 28.6 µg/mL (≈ 60.3 µM) | Not Active | Not Active |  |  |  |  |  |  |  |  |  |  |  | 
5 | C[C@@H]1[C@H](O)[C@@H](C)/C=C/C=C/C=C/C=C/C=C/C=C/C=C/[C@H](O[C@@H]2O[C@H](C)[C@@H](O)[C@H](N)[C@@H]2O)C[C@@H]2O[C@](O)(C[C@@H](O)C[C@@H](O)[C@H](O)CC[C@@H](O)C[C@@H](O)CC(=O)O[C@H]1C)C[C@H](O)[C@H]2C(=O)O [AMPHOTERICIN B] |  |  |  | 3.27 µg/mL (≈ 3.54 µM) |  |  |  | 4.26 µg/mL (≈ 4.61 µM) |  |  |  |  |  |  |  |  |  | 
6 | C[N+](C)(C)[C@H](CCOc1c(Cl)cc(Br)cc1Br)C(=O)[O-] |  |  |  |  |  |  |  |  |  | Active | Active | Active | Active | Active | Active | inactive | inactive | inactive

Continued, in another order:

Row | IC50 [1] | IC50 [2] | IC50 [3] | IC50 [13, 16] | IC50 [14] | IC50 [15] | IC50 [15, 17] | IC50 [14, 18] | IC50 [13] | Structure (SMILES) | Activity [4] | Activity [5] | Activity [6] | Activity [7] | Activity [8] | Activity [9] | Activity [10] | Activity [11] | Activity [12]
7 | 9.24 µM | > 102 µM | 14.7 µM |  |  |  |  |  |  | COc1c(I)cc(C[C@H](C(=O)[O-])[N+](C)(C)C)cc1I [PURPUROINE F] | Active | Active | Active | Active | Active | Active | inactive | inactive | inactive
8 | 17.8 µM | > 130 µM | 11.7 µM | 26.1 µg/mL (≈ 67.7 µM) | Not Active | Not Active |  |  |  | C[N+](C)(C)[C@H](CCOc1c(Cl)cc(Br)cc1Cl)C(=O)[O-] [PURPUROINE C] |  |  |  |  |  |  |  |  | 
9 | 17.1 µM | > 113 µM | 17.9 µM |  |  |  |  |  |  | COc1c(Br)cc(C[C@H](C(=O)[O-])[N+](C)(C)C)cc1I [PURPUROINE H] |  |  |  |  |  |  |  |  | 
10 | 21.2 µM | > 105 µM | 25 µM |  |  |  |  |  |  | C[N+](C)(C)[C@H](Cc1cc(I)c(O)c(I)c1)C(=O)[O-] [PURPUROINE G] | Active | Active | Active | Active | Active | Active | inactive | inactive | inactive
11 | 2.78 µM | > 96 µM | 1.8 µM | 25.6 µg/mL (≈ 49.1 µM) |  | Not Active |  | 19 µg/mL (≈ 36.5 µM) |  | C[N+](C)(C)[C@H](CCOc1c(Br)cc(Br)cc1I)C(=O)[O-] [PURPUROINE D] |  |  |  |  |  |  |  |  | 
12 | > 117 µM | > 117 µM | > 117 µM |  | Not Active |  | 18.1 µg/mL (≈ 42.2 µM) |  | Not Active | C[N+](C)(C)[C@H](Cc1cc(Br)c(O)c(I)c1)C(=O)[O-] [PURPUROINE I] |  |  |  |  |  |  | inactive | inactive | inactive
